Where “and” joins values, the source holds several entries; their conditions need not be identical. Identical values can stand only once. Square brackets hold non-standard residues; d marks the D form. Peptide text beside a SMILES is read from it. d(hArg(Et2)) = CCN=C(NCC)NCCCC[C@@H](N)C(=O)O; hArg(Et2) = CCN=C(NCC)NCCCC[C@H](N)C(=O)O; dPhe(4-Cl) = N[C@H](Cc1ccc(Cl)cc1)C(=O)O; d2Nal = N[C@H](Cc1ccc2ccccc2c1)C(=O)O; d3Pal = N[C@H](Cc1cccnc1)C(=O)O
What was measured:
[1] = tested on: Luteinizing hormone (LH) blood level; assay: Home controlled ovarian hyperstimulation method with vaginal elagolix (Example 2): LH blood level before and after medication; assay type: in vivo, female patients; conditions: 50 mg elagolix tablet as vaginal suppository on days 9 and 11
Method: On day 9 of the menstrual cycle, the patient is directed to orally take 50 to 150 mg, preferably 100 mg, (one, two, or three 50 mg oral tablets) of clomiphene citrate and to either insert vaginally or take orally, depending on the patient's preference, a gonadotropin-releasing hormone (GnRH) antagonist such as elagolix (marketed as ORILISSA®), instead of the expensive injections of ganirelix acetate (GANIRELEX®) or cetrorelix acetate (marketed as CETROTIDE®) used routinely in conventional practices. A dose of 25 mg (⅛^th of a pill) up to 200 mg of elagolix (1 full pill), preferably 25 mg, will be used, with the dose being the same whether inserted vaginally or taken orally. Elagolix is a GnRH antagonist that is conventionally used in the treatment of pain associated with endometriosis in women, not for the treatment of infertility. By blocking the GnRH receptor, elagolix suppresses LH release by the pituitary gland and thus prevents LH surge. Ultimately, elagolix suppresses gonadal steroid production, thereby reducing circulating levels of sex hormones such as progesterone, estradiol, and testosterone. Elagolix is generally an oral medication (oral tablet), however in the present method, elagolix is a tablet taken mainly as a vaginal suppository, but may be taken orally based on the patient's preference. […]

[2] = tested on: Luteinizing hormone (LH) blood level; assay: GnRH antagonist protocol with ganirelix acetate injections (Example 1): LH blood level before and after medication; assay type: in vivo, female patients
Method: Five female patients were treated with a GnRH antagonist protocol requiring injections of medications. […]
Three patients, numbered 3 to 5, were injected with 75, 150 and 225 Units of FSH, respectively, on days 4 to 12 and one third a syringe of 150 mcg/0.5 mL of ganirelix acetate on days 11 to 13. Patient no. 3 received 50 mg of clomiphene citrate on days 4 to 12, and 2.5 mg of letrozole on days 4 to 8. Patient no. 4 received 100 mg of clomiphene citrate and 2.5 mg of letrozole on days 4 to 8, and 50 mg of clomiphene citrate on days 9 to 11. Patient no. 5 received no clomiphene citrate or letrozole. Luteinizing hormone (LH) blood level was 12.0, 18.0 and 14.6 mIU/mL, respectively, on day 10 and dropped to 4.9, 16.0 and 14.1 mIU/mL, respectively, on day 12. […]

Row | SMILES | Luteinizing hormone (LH) blood level on day 13 [1] | Luteinizing hormone (LH) blood level on day 11 ([1]; clomiphene citrate 100 mg, letrozole 5 mg) | LH blood hormone level (mIU/mL) AFTER medication intake ([2]; Example 1, one line per patient (patients 1-5), after ganirelix injections, listed as Conventional Ganielex/Cetrotide Injectables) | LH blood hormone level (mIU/mL) BEFORE medication intake ([2]; Example 1, one line per patient (patients 1-5), baseline before ganirelix injections, with FSH and, except patient 5, clomiphene citrate/letrozole, listed as Conventional Ganielex/Cetrotide Injectables) | % Drop in blood LH hormone level ([2]; Example 1, one line per patient (patients 1-5), before vs after medication intake, listed as Conventional Ganielex/Cetrotide Injectables) | Luteinizing hormone (LH) blood level on day 12 ([2]; patient no. 1, half a syringe of 150 mcg/0.5 mL ganirelix acetate on days 11 and 12) | Luteinizing hormone (LH) blood level on day 10 ([2]; patient no. 1, half a syringe of 150 mcg/0.5 mL ganirelix acetate on days 11 and 12, FSH 150 Units, clomiphene citrate 50 mg, letrozole 2.5 mg) | Luteinizing hormone (LH) blood level on day 13 ([2]; patient no. 2, half a syringe of 150 mcg/0.5 mL ganirelix acetate on days 11 to 13) | Luteinizing hormone (LH) blood level on day 11 ([2]; patient no. 2, half a syringe of 150 mcg/0.5 mL ganirelix acetate on days 11 to 13, FSH 75/150 Units, clomiphene citrate 50 mg, letrozole 2.5 mg) | Luteinizing hormone (LH) blood level on day 10 ([2]; patients no. 3, 4, 5 respectively, one third a syringe of 150 mcg/0.5 mL ganirelix acetate on days 11 to 13, FSH 75, 150, 225 Units)
1 | COc1cccc(-c2c(C)n(Cc3c(F)cccc3C(F)(F)F)c(=O)n(C[C@H](NCCCC(=O)O)c3ccccc3)c2=O)c1F [Vaginal elagolix suppository, elagolix] | 1.0 mIU/mL | 7.0 mIU/mL |  |  |  |  |  |  |  | 
2 | CCN=C(NCC)NCCCC[C@H](NC(=O)[C@H](CC(C)C)NC(=O)[C@@H](CCCCNC(=NCC)NCC)NC(=O)[C@H](Cc1ccc(O)cc1)NC(=O)[C@H](CO)NC(=O)[C@@H](Cc1cccnc1)NC(=O)[C@@H](Cc1ccc(Cl)cc1)NC(=O)[C@@H](Cc1ccc2ccccc2c1)NC(C)=O)C(=O)N1CCC[C@H]1C(=O)N[C@H](C)C(N)=O [Ganirelex, ganirelix acetate] (Ac-[d2Nal][dPhe(4-Cl)][d3Pal]SY[d(hArg(Et2))]L[hArg(Et2)]P[dA]-NH2) |  |  | 2.0 mIU/mL and 6.3 mIU/mL and 4.9 mIU/mL and 16.0 mIU/mL and 14.1 mIU/mL | 4.3 mIU/mL and 12.0 mIU/mL (2×) and 18.0 mIU/mL and 14.6 mIU/mL | 3.4% | 2 mIU/mL | 4.3 mIU/mL | 6.3 mIU/mL | 12.0 mIU/mL | 12.0 mIU/mL and 18.0 mIU/mL and 14.6 mIU/mL

— patent publication US20200346048A1, “METHOD AND KIT FOR HOME CONTROLLED OVARIAN STIMULATION FOR IN VITRO FERTILIZATION” (priority 2019, published 2020)
